Structures are written as SMILES.

The target of the first assay is T1, Prothrombin (Homo sapiens, UniProt P00734). The assay is described as follows: Inhibition of thrombin (unknown origin).
Details: not given
In turn, `CCn1c(CNc2ccc(C(=N)N)cc2)nc2cc(C(=O)N(CCC(=O)O)c3ccccc3C(F)(F)F)ccc21` showed an IC50 of 6.17 nM.

`CCCCn1c(CNc2ccc(C(=N)N)cc2F)nc2cc(C(=O)N(CCC(=O)O)c3ccc(F)c(Cl)c3)ccc21`: the IC50 was 36.3 nM.

For `CC(C)n1c(CNc2ccc(C(=N)N)cc2)nc2cc(C(=O)N(CCC(=O)O)c3ccc(F)c(Cl)c3)ccc21`, the IC50 is 18.6 nM.

`Cn1c(CNc2ccc(C(=N)N)cc2)nc2cc(C(=O)N(CCC(=O)O)c3cccc(C(F)(F)F)c3)ccc21` gave an IC50 of 12.3 nM.

Molecule `CCn1c(CNc2ccc(C(=N)N)cc2)nc2cc(C(=O)N(CCC(=O)O)c3cccc(C(F)(F)F)c3)ccc21` had an IC50 of 26.3 nM.

`CCCCn1c(CNc2ccc(C(=N)N)cc2)nc2cc(C(=O)N(CCC(=O)O)c3ccc(F)c(Cl)c3)ccc21` had an IC50 of 39.8 nM.

Turning to `N=C(N)c1ccc(NCc2nc3cc(C(=O)N(CCC(=O)O)c4ccc(F)c(Cl)c4)ccc3n2C2CC2)cc1`, the IC50 was 27.5 nM.

In the case of `CCn1c(CNc2ccc(C(=N)N)cc2)nc2cc(C(=O)N(CCC(=O)O)c3cc(F)cc(F)c3)ccc21`, the IC50 is 7.94 nM.

For `Cn1c(CNc2ccc(C(=N)N)cc2F)nc2cc(C(=O)N(CCC(=O)O)c3ccc(F)c(Cl)c3)ccc21`, the IC50 was 11.5 nM.

`CCn1c(CNc2ccc(C(=N)N)cc2)nc2cc(C(=O)N(CCC(=O)O)c3ccccc3F)ccc21` had an IC50 of 3.55 nM.

Regarding `Cn1c(CNc2ccc(C(=N)N)cc2)nc2cc(C(=O)N(CCC(=O)O)c3cccc(F)c3)ccc21`, the IC50 was 5.37 nM.

For `CCCn1c(CNc2ccc(C(=N)N)cc2)nc2cc(C(=O)N(CCC(=O)O)c3ccc(F)c(Cl)c3)ccc21`, the IC50 is 11 nM.

With `Cc1ccnc(N(CCC(=O)O)C(=O)c2ccc3c(c2)nc(CNc2ccc(C(=N)N)cc2F)n3C)c1`, the IC50 was 24 nM.

In turn, `CCCCCn1c(CNc2ccc(C(=N)N)cc2)nc2cc(C(=O)N(CCC(=O)O)c3ccc(F)c(Cl)c3)ccc21` showed an IC50 of 117 nM.

Turning to `CCn1c(CNc2ccc(C(=N)N)cc2)nc2cc(C(=O)N(CCC(=O)O)c3ccc(F)c(F)c3)ccc21`, the IC50 is 9.55 nM.

The molecule `CC(C)n1c(CNc2ccc(C(=N)N)cc2F)nc2cc(C(=O)N(CCC(=O)O)c3ccc(F)c(Cl)c3)ccc21` gave an IC50 of 17.4 nM.

`N=C(N)c1ccc(NCc2nc3cc(C(=O)N(CCC(=O)O)c4ccc(F)c(Cl)c4)ccc3n2C2CC2)c(F)c1`: the IC50 is 26.9 nM.

Take `CCn1c(CNc2ccc(C(=N)N)cc2)nc2cc(C(=O)N(CCC(=O)O)c3ccc(F)cc3)ccc21`: the IC50 was 4.27 nM.

Molecule `Cn1c(CNc2ccc(C(=N)N)cc2)nc2cc(C(=O)N(CCC(=O)O)c3cc(F)cc(F)c3)ccc21` showed an IC50 of 10.5 nM.

`CCn1c(CNc2ccc(C(=N)N)cc2F)nc2cc(C(=O)N(CCC(=O)O)c3cc(C)ccn3)ccc21`: the IC50 was 19.1 nM.

Molecule `CCCn1c(CNc2ccc(C(=N)N)cc2F)nc2cc(C(=O)N(CCC(=O)O)c3ccc(F)c(Cl)c3)ccc21` showed an IC50 of 28.2 nM.

Molecule `CCn1c(CNc2ccc(C(=N)N)cc2)nc2cc(C(=O)N(CCC(=O)O)c3cccc(F)c3)ccc21` had an IC50 of 7.41 nM.

In turn, `CCn1c(CNc2ccc(C(=N)N)cc2)nc2cc(C(=O)N(CCC(=O)O)c3ccc(OC(F)(F)F)cc3)ccc21` gave an IC50 of 117 nM.

In the case of `CCCCCn1c(CNc2ccc(C(=N)N)cc2F)nc2cc(C(=O)N(CCC(=O)O)c3ccc(F)c(Cl)c3)ccc21`, the IC50 is 174 nM.

`CCn1c(CNc2ccc(C(=N)N)cc2)nc2cc(C(=O)N(CCC(=O)O)c3ccc(F)c(Cl)c3)ccc21` showed an IC50 of 8.91 nM.

Molecule `CCn1c(CNc2ccc(C(=N)N)cc2)nc2cc(C(=O)N(CCC(=O)O)c3ccc(C(F)(F)F)cc3)ccc21` showed an IC50 of 200 nM.

Consider `Cn1c(CNc2ccc(C(=N)N)cc2)nc2cc(C(=O)N(CCC(=O)O)c3ccc(F)c(Cl)c3)ccc21`, for which the IC50 was 8.32 nM.

Molecule `CCn1c(CNc2ccc(C(=N)N)cc2F)nc2cc(C(=O)N(CCC(=O)O)c3ccc(F)c(Cl)c3)ccc21` had an IC50 of 2.04 nM.

For the next assay, the target named is T1, Prothrombin. Nature of the assay: Inhibition of human thrombin preincubated for 10 mins using Ac-FVR-AMC as substrate by […] assay. The settings on record: read-out: IC50.
Consider `Cn1c(CNc2ccc(C(=N)N)cc2)nc2cc(C(=O)N(CCC(=O)O)c3ccc(F)c(F)c3)ccc21`, for which the IC50 worked out at 3.95 nM.

In the case of `Cn1c(CNc2ccc(C(=N)N)cc2)nc2cc(C(=O)N(CCC(=O)O)c3ccccc3C(F)(F)F)ccc21`, the IC50 was found to be 4.96 nM.

Regarding `CCCCCCOC(=O)NC(=N)c1ccc(NCc2nc3cc(C(=O)N(CCC(=O)OCC)c4ccccn4)ccc3n2C)cc1` [DABIGATRAN ETEXILATE], the IC50 is 2.61 nM.

The same assay, now with this note: read-out: pIC50 (converted).
Regarding `Cn1c(CNc2ccc(C(=N)N)cc2)nc2cc(C(=O)N(CCC(=O)O)c3ccc(F)c(F)c3)ccc21`, the IC50 is 3.98 nM.

As for `Cn1c(CNc2ccc(C(=N)N)cc2)nc2cc(C(=O)N(CCC(=O)O)c3ccccc3C(F)(F)F)ccc21`, the IC50 was 5.01 nM.

`CCCCCCOC(=O)NC(=N)c1ccc(NCc2nc3cc(C(=O)N(CCC(=O)OCC)c4ccccn4)ccc3n2C)cc1` [DABIGATRAN ETEXILATE]: the IC50 was 2.63 nM.

These data come from ChEMBL document CHEMBL3739403 (Bioorg Med Chem, 2016).
